Assay: Solubility of compound of Formula 1 in various solvents (excess compound, shaking, HPLC)
Format: physicochemical
Settings: Ethanol; 25° C., 24 hours
Description: Since solvent that gives high solubility can dissolve the compound of Formula 1 in a small amount compared to a solvent that gives low solubility, in particular, when formulated into an external preparation of skin, a relatively higher amount of water may be contained, so that the feeling of use can be further enhanced.
An excessive amount of the compound of Formula 1 was added to 1 mL of each solvent shown in Table 1 below, and stirred at 25° C. at 200 rpm for 24 hours while shaking
(Shaking incubator, SI 600R, JEIO TECH, Korea). Thereafter, centrifugation was performed at 10,000 rpm for 10 minutes, and the supernatant was filtered using a membrane filter (0.2 μm), diluted appropriately with methanol, and analyzed by HPLC.

Solubility: 75.32 mg/mL
Structure (SMILES): CCCc1nc(C(F)(F)F)ccc1/C=C/C(=O)N[C@H](C)c1cc(F)c(NS(C)(=O)=O)c(F)c1 [compound of Formula 1, (R)-N-[1-(3,5-difluoro-4-methanesulfonylamino-phenyl)-ethyl]-3-(2-propyl-6-trifluoromethyl-pyridin-3-yl)-acrylamide]

— patent publication US12059412B2, “Pharmaceutical composition containing (R)-N-[1-(3,5-difluoro-4-methanesulfonylamino-phenyl)-ethyl]-3-(2-propyl-6-trifluoromethylpyridin-3-yl)-acrylamide and method for inhibiting crystal formation thereof” (Amorepacific Corporation, priority 2018, dated 2024)
